Experimental data taken from publication PMC5760719, “Biotransformation of polyunsaturated fatty acids to bioactive hepoxilins and trioxilins by microbial enzymes” (Nature Communications, 2018).

Tests used:
Assay in all cases: product formation by HPLC
Type in all cases: biochemical
[1] = target: T1, 12-LOX (ARA 12-lipoxygenase, MXAN_1745) (Myxococcus xanthus, UniProt Q1DBH8); details: pathway reaction with purified enzyme; dioxygenation to 12-HpEPE
T1 sequence (Q1DBH8 1-715): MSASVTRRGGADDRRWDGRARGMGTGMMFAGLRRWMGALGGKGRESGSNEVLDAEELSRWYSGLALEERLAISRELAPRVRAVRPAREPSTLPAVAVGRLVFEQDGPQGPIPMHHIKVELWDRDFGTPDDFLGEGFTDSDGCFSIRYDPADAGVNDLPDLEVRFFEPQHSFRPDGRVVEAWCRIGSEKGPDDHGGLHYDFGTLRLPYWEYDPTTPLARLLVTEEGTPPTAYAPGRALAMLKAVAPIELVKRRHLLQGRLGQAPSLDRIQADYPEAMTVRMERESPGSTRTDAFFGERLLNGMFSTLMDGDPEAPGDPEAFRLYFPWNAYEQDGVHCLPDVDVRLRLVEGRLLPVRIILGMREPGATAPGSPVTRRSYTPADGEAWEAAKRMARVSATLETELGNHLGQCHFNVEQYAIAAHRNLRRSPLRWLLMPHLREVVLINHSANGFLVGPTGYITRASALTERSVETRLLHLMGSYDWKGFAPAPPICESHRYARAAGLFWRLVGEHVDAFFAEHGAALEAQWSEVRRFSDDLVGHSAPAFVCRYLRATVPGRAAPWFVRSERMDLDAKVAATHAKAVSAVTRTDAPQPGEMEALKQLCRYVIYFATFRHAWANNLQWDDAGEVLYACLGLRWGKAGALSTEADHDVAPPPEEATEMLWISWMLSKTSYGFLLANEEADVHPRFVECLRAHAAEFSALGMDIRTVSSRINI

[2] = target: T2, 11-LOX (ARA 11-lipoxygenase, MXAN_1744) (Myxococcus xanthus, UniProt Q1DBH9); details: pathway reaction with purified enzyme; dioxygenation to 11-HpEPE
T2 sequence (Q1DBH9 1-675): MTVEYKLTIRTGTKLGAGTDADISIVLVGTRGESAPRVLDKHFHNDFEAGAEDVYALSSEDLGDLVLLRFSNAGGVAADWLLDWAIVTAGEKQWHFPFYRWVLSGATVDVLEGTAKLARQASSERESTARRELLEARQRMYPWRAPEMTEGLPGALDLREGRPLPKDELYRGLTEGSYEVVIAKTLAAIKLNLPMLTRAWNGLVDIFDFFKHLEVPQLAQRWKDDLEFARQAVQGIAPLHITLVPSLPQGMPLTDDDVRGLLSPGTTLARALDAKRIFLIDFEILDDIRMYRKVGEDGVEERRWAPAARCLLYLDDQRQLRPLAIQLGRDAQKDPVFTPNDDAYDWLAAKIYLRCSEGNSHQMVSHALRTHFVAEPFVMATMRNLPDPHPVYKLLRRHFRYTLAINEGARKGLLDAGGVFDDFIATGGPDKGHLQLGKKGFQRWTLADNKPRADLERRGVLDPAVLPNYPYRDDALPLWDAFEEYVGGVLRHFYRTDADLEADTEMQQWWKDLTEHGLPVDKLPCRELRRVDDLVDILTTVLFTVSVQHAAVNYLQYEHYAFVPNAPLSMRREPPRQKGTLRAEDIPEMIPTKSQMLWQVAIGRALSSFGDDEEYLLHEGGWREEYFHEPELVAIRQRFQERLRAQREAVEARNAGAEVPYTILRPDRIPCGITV

[3] = target: T3, EH (epoxide hydrolase, MXAN_1644) (Myxococcus xanthus, UniProt Q1DBS7); details: pathway reaction with purified enzymes; HXD3 formed by 11-LOX, hydrolysis to TrXD3
T3 sequence (Q1DBS7 1-318): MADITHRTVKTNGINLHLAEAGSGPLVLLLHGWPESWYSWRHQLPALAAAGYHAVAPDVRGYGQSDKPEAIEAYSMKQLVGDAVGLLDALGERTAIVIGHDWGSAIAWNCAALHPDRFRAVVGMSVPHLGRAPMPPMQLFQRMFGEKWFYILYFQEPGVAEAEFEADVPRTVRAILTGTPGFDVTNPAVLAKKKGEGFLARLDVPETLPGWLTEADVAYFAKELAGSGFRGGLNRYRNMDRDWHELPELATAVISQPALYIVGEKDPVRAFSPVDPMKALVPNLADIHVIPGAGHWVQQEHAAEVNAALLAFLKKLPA

SMILES	product formation by HPLC [1]	product formation by HPLC [2]	product formation by HPLC [3]
CC/C=C\C/C=C\C/C=C\C/C=C\C/C=C\CCCC(=O)O [EPA, eicosapentaenoic acid]	12-LOX and 11-LOX converted EPA to 12-hydroperoxypentaenoic acid (HpEPE) and 11-HpEPE, respectively	12-LOX and 11-LOX converted EPA to 12-hydroperoxypentaenoic acid (HpEPE) and 11-HpEPE, respectively	
CCCCC/C=C\C(O)C1OC1C/C=C\C/C=C\CCCC(=O)O (stereo not drawn) [HXD3]			HXB3 and HxD3, respectively, which were then converted to TrXB3 and TrXD3, respectively, by EH
